From patent US10407422B2, “Triazolopyridine inhibitors of myeloperoxidase” (priority 2015, dated 2019) come the findings set out here.

The term IC50 denotes the midpoint of a concentration-inhibition curve. A higher IC50 goes with lower potency.

Assay [1] concerns the target T1, myeloperoxidase (MPO) (Homo sapiens (Human), UniProt P05164). The experiment in a line: MPO peroxidation assay (Amplex Red assay). Particulars: potency range class. The format is biochemical. The method, boiled down: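 Human MPO at 200 pM with 40 nM H2O2 preincubated 10 min at room temperature with inhibitor in 100 mM KPi pH 7.4. Reaction started with Amplex Red mixture (200 μM Amplex Red, 10 mM H2O2); resorufin fluorescence (Ex 535, Em 590 nm) read kinetically for 15 min. IC50 fitted from slopes over 180-540 s.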

The target of assay [2] is T1, myeloperoxidase (MPO). The assay can be described thus: MPO chlorination assay (APF assay). The format is biochemical. The conditions noted are these: potency range class. The method, boiled down:
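Human MPO (200 pM) preincubated 10 min at room temperature with inhibitor and 120 mM NaCl in 100 mM KPi pH 7.4. Reaction started with APF plus 10 μM H2O2, and hypochlorite-generated fluorescein read kinetically (ex 485/em 535 nm) for 3 min. IC50 from linear-phase slopes fitted to a four-parameter equation.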

T1 sequence (P05164 49-745): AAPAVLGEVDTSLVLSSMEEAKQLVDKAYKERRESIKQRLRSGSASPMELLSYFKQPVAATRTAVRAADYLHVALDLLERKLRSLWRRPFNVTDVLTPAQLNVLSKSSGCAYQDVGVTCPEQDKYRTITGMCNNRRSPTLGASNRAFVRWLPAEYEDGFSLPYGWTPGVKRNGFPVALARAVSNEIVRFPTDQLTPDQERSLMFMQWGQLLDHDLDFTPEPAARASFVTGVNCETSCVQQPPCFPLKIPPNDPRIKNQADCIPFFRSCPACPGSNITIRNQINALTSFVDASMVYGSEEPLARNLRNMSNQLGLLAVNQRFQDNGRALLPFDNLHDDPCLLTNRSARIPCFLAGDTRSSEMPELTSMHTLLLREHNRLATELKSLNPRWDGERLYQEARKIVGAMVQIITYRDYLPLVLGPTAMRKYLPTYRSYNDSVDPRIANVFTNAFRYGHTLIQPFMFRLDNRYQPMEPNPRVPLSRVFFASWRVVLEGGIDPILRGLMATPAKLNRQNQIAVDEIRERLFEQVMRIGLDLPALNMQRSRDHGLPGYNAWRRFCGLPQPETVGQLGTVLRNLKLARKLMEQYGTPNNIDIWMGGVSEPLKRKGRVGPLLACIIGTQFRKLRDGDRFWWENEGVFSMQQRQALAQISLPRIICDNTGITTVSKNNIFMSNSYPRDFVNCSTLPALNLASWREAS

For the compound `Nc1cc(Cc2cnn(Cc3ccc(C(=O)NCCc4cnc[nH]4)cc3)c2)c2nn[nH]c2n1` [Example 83, 4-{[4-({5-Amino-3H-[1,2,3]triazolo[4,5-b]pyridin-7-yl}methyl)-1H-pyrazol-1-yl]methyl}-N-[2-(1H-imidazol-4-yl)ethyl]benzamide], the results for the IC50 in assay [1] and in assay [2] were 1 to 100 nM and 101 to 999 nM, respectively.

As to `Nc1cc(Cc2cnn(Cc3ccc(C(=O)N4CCC(O)C4)cc3)c2)c2nn[nH]c2n1` (centres unmarked) [Example 84, 1-(4-{[4-({5-Amino-3H-[1,2,3]triazolo[4,5-b]pyridin-7-yl}methyl)-1H-pyrazol-1-yl]methyl}benzoyl)pyrrolidin-3-ol], the IC50 in assay [1] and in assay [2] was 101 to 999 nM in each case.

In the case of `CN1CCN(C(=O)c2ccc(Cn3cc(Cc4cc(N)nc5[nH]nnc45)cn3)cc2)CC1` [Example 85, 7-[(1-{[4-(4-Methylpiperazine-1-carbonyl)phenyl]methyl}-1H-pyrazol-4-yl)methyl]-3H-[1,2,3]triazolo[4,5-b]pyridin-5-amine], the figures for the IC50 in assay [1] and in assay [2] were 1 to 100 nM and 101 to 999 nM, respectively.

Turning to `Nc1cc(Cc2cnn(Cc3ccc(C(=O)NCc4ccncc4)cc3)c2)c2nn[nH]c2n1` [Example 86, 4-{[4-({5-Amino-3H-[1,2,3]triazolo[4,5-b]pyridin-7-yl}methyl)-1H-pyrazol-1-yl]methyl}-N-(pyridin-4-ylmethyl)benzamide], the IC50 in assay [1] fell in the range of 1 to 100 nM; in assay [2], 101 to 999 nM.

As to `CC(CO)NC(=O)c1ccc(Cn2cc(Cc3cc(N)nc4[nH]nnc34)cn2)cc1` (centres unmarked) [Example 87, 4-{[4-({5-Amino-3H-[1,2,3]triazolo[4,5-b]pyridin-7-yl}methyl)-1H-pyrazol-1-yl]methyl}-N-(1-hydroxypropan-2-yl)benzamide], the IC50 in assay [1] was in the range of 1 to 100 nM; in assay [2] it was 101 to 999 nM.

With `CCCNC(=O)c1ccc(Cn2cc(Cc3cc(N)nc4[nH]nnc34)cn2)cc1` [Example 88, 4-{[4-({5-Amino-3H-[1,2,3]triazolo[4,5-b]pyridin-7-yl}methyl)-1H-pyrazol-1-yl]methyl}-N-propylbenzamide], the IC50 in assay [1] fell in the range of 1 to 100 nM; in assay [2], 101 to 999 nM.

On to `CN(C)CCCNC(=O)c1ccc(Cn2cc(Cc3cc(N)nc4[nH]nnc34)cn2)cc1` [Example 89, 4-{[4-({5-Amino-3H-[1,2,3]triazolo[4,5-b]pyridin-7-yl}methyl)-1H-pyrazol-1-yl]methyl}-N-[3-(dimethylamino)propyl]benzamide], for which the IC50 in assay [1] was 1 to 100 nM; in assay [2], 101 to 999 nM.

On to `NC(=O)CNC(=O)c1ccc(Cn2cc(Cc3cc(N)nc4[nH]nnc34)cn2)cc1` [Example 90, 2-[(4-{[4-({5-Amino-3H-[1,2,3]triazolo[4,5-b]pyridin-7-yl}methyl)-1H-pyrazol-1-yl]methyl}phenyl)formamido]acetamide], for which the IC50 in assay [1] fell in the range of 1 to 100 nM; in assay [2], 101 to 999 nM.

Consider `Cc1cnc(CNC(=O)c2ccc(Cn3cc(Cc4cc(N)nc5[nH]nnc45)cn3)cc2)cn1` [Example 91, 4-{[4-({5-Amino-3H-[1,2,3]triazolo[4,5-b]pyridin-7-yl}methyl)-1H-pyrazol-1-yl]methyl}-N-[(5-methylpyrazin-2-yl)methyl]benzamide], for which the values for the IC50 in assay [1] and in assay [2] were 1 to 100 nM and 101 to 999 nM, respectively.

Turning to `Nc1cc(Cc2cnn(Cc3ccc(C(=O)NCc4cnco4)cc3)c2)c2nn[nH]c2n1` [Example 92, 4-{[4-({5-Amino-3H-[1,2,3]triazolo[4,5-b]pyridin-7-yl}methyl)-1H-pyrazol-1-yl]methyl}-N-(1,3-oxazol-5-ylmethyl)benzamide], the IC50 in assay [1] lay within 101 to 999 nM; in assay [2] it was 1000 to 10000 nM.

For `Nc1cc(Cc2cnn(Cc3ccc(C(=O)NCc4cncnc4)cc3)c2)c2nn[nH]c2n1` [Example 93, 4-{[4-({5-Amino-3H-[1,2,3]triazolo[4,5-b]pyridin-7-yl}methyl)-1H-pyrazol-1-yl]methyl}-N-(pyrimidin-5-ylmethyl)benzamide], the figures for the IC50 in assay [1] and in assay [2] were 1 to 100 nM and 101 to 999 nM, respectively.

As to `Nc1cc(Cc2cnn(Cc3ccc(C(=O)NCc4ccc(=O)[nH]c4)cc3)c2)c2nn[nH]c2n1` [Example 94, 4-{[4-({5-Amino-3H-[1,2,3]triazolo[4,5-b]pyridin-7-yl}methyl)-1H-pyrazol-1-yl]methyl}-N-[(6-oxo-1,6-dihydropyridin-3-yl)methyl]benzamide], the IC50 in assay [1] was 1 to 100 nM; in assay [2], 101 to 999 nM.

Regarding `Cc1nnc(C(C)NC(=O)c2ccc(Cn3cc(Cc4cc(N)nc5[nH]nnc45)cn3)cc2)[nH]1` (centres unmarked) [Example 95, 4-{[4-({5-Amino-3H-[1,2,3]triazolo[4,5-b]pyridin-7-yl}methyl)-1H-pyrazol-1-yl]methyl}-N-[1-(5-methyl-4H-1,2,4-triazol-3-yl)ethyl]benzamide], the IC50 in assay [1] and in assay [2] was 101 to 999 nM throughout.

As for `Nc1cc(Cc2cnn(Cc3ccc(C(=O)N4CCOCC4)cc3)c2)c2nn[nH]c2n1` [Example 96, 7-[(1-{[4-(Morpholine-4-carbonyl)phenyl]methyl}-1H-pyrazol-4-yl)methyl]-3H-[1,2,3]triazolo[4,5-b]pyridin-5-amine], the IC50 in assay [1] lay in the range of 1 to 100 nM; in assay [2], 101 to 999 nM.

Consider `COc1cccc(Cn2cc(Cc3cc(N)nc4[nH]nnc34)cn2)c1` [Example 97, 7-((1-(3-Methoxybenzyl)-1H-pyrazol-4-yl)methyl)-3H-[1,2,3]triazolo[4,5-b]pyridin-5-amine], for which the IC50 in assay [1] and in assay [2] was 1 to 100 nM throughout.

Regarding `Nc1cc(Cc2cnn(Cc3cccc(OC4CC4)c3)c2)c2nn[nH]c2n1` [Example 98, 7-((1-(3-Cyclopropoxybenzyl)-1H-pyrazol-4-yl)methyl)-3H-[1,2,3]triazolo[4,5-b]pyridin-5-amine], the IC50 in assay [1] and in assay [2] was 1 to 100 nM each time.

For the compound `Nc1cc(Cc2cnn(Cc3cccc(OCc4ccccc4)c3)c2)c2nn[nH]c2n1` [Example 99, 7-((1-(3-(Benzyloxy)benzyl)-1H-pyrazol-4-yl)methyl)-3H-[1,2,3]triazolo[4,5-b]pyridin-5-amine], the IC50 in assay [1] and in assay [2] was 1 to 100 nM throughout.

For `Cn1ccc(-c2cccc(Cn3cc(Cc4cc(N)nc5[nH]nnc45)cn3)c2)n1` [Example 100, 7-((1-(3-(1-Methyl-1H-pyrazol-3-yl)benzyl)-1H-pyrazol-4-yl)methyl)-3H-[1,2,3]triazolo[4,5-b]pyridin-5-amine], the concentration for half-maximal inhibition (IC50) in assay [1] and in assay [2] was 1 to 100 nM each time.

Consider `Nc1cc(Cc2cnn(Cc3cccc(Br)c3)c2)c2nn[nH]c2n1` [Example 101, 7-((1-(3-Bromobenzyl)-1H-pyrazol-4-yl)methyl)-3H-[1,2,3]triazolo[4,5-b]pyridin-5-amine], for which the IC50 in assay [1] and in assay [2] was 1 to 100 nM throughout.

Take `Nc1cc(Cc2cnn(Cc3cccnc3)c2)c2nn[nH]c2n1` [Example 102, 7-((1-(Pyridin-3-ylmethyl)-1H-pyrazol-4-yl)methyl)-3H-[1,2,3]triazolo[4,5-b]pyridin-5-amine]: the IC50 in assay [1] is 1 to 100 nM; in assay [2], 101 to 999 nM.

`Nc1cc(Cc2cnn(Cc3ccc(C(F)(F)F)cc3)c2)c2nn[nH]c2n1` [Example 103, 7-((1-(4-(Trifluoromethyl)benzyl)-1H-pyrazol-4-yl)methyl)-3H-[1,2,3]triazolo[4,5-b]pyridin-5-amine]: the IC50 in assay [1] and in assay [2] was 101 to 999 nM each time.

As for `Nc1cc(Cc2cnn(Cc3ccc(OC(F)F)cc3)c2)c2nn[nH]c2n1` [Example 104, 7-((1-(4-(Difluoromethoxy)benzyl)-1H-pyrazol-4-yl)methyl)-3H-[1,2,3]triazolo[4,5-b]pyridin-5-amine], the IC50 in assay [1] lay in the range of 1 to 100 nM; in assay [2], 101 to 999 nM.

`COc1ccc(-c2ccc(Cn3cc(Cc4cc(N)nc5[nH]nnc45)cn3)cc2)cn1` [Example 105, 7-((1-(4-(6-Methoxypyridin-3-yl)benzyl)-1H-pyrazol-4-yl)methyl)-3H-[1,2,3]triazolo[4,5-b]pyridin-5-amine]: the IC50 in assay [1] and in assay [2] was 101 to 999 nM throughout.

Regarding `Nc1cc(Cc2cnn(Cc3cccc(Oc4ccccc4)c3)c2)c2nn[nH]c2n1` [Example 106, 7-((1-(3-Phenoxybenzyl)-1H-pyrazol-4-yl)methyl)-3H-[1,2,3]triazolo[4,5-b]pyridin-5-amine], the IC50 in assay [1] and in assay [2] was 1 to 100 nM in each case.

For `Nc1cc(Cc2cnn(Cc3cn(Cc4ccccc4)nn3)c2)c2nn[nH]c2n1` [Example 107, 7-((1-((1-Benzyl-1H-1,2,3-triazol-4-yl)methyl)-1H-pyrazol-4-yl)methyl)-3H-[1,2,3]triazolo[4,5-b]pyridin-5-amine], the figures for the IC50 in assay [1] and in assay [2] were 1 to 100 nM and 101 to 999 nM, respectively.

On to `Nc1cc(Cc2cnn(Cc3ccc(CN4CCOCC4)cc3)c2)c2nn[nH]c2n1` [Example 108, 7-((1-(4-(Morpholinomethyl)benzyl)-1H-pyrazol-4-yl)methyl)-3H-[1,2,3]triazolo[4,5-b]pyridin-5-amine], for which the concentration for half-maximal inhibition (IC50) in assay [1] was in the range of 1 to 100 nM; in assay [2], 101 to 999 nM.

Turning to `Nc1cc(Cc2cnn(Cc3ccc(Cn4cccn4)cc3)c2)c2nn[nH]c2n1` [Example 109, 7-((1-(4-((1H-Pyrazol-1-yl)methyl)benzyl)-1H-pyrazol-4-yl)methyl)-3H-[1,2,3]triazolo[4,5-b]pyridin-5-amine], the IC50 in assay [1] was in the range of 1 to 100 nM; in assay [2] it was 101 to 999 nM.

Regarding `Nc1cc(Cc2cnn(Cc3ccc(Cn4ccnc4)cc3)c2)c2nn[nH]c2n1` [Example 110, 7-((1-(4-((1H-Imidazol-1-yl)methyl)benzyl)-1H-pyrazol-4-yl)methyl)-3H-[1,2,3]triazolo[4,5-b]pyridin-5-amine], the IC50 in assay [1] and in assay [2] was 1 to 100 nM in each case.
